Test results published in patent publication US9714228B2, “Dihydrofuran derivatives as insecticidal compounds” (Syngenta Participations AG, priority 2010, dated 2017).

Key:
Format in all cases: in vivo
Thrips tabaci = test: Thrips tabaci, sprayed sunflower leaf discs; details: foliar, 168 h, sunflower leaf discs sprayed at 200 ppm, mixed ages, mortality after 7 days
Experimental: Thrips tabaci (Onion Thrips): Sunflower leaf discs were placed on agar in a 24-well microtiter plate and sprayed with test solutions at an application rate of 200 ppm. After drying, the leaf discs were infested with an […] population of mixed ages. After an incubation period of 7 days, samples were checked for mortality.

Myzus persicae = Myzus persicae (sachet), mixed population, sucrose solution; details: 120 h, application rate 12.5 ppm, mortality 5 days after infestation
Source text: Myzus persicae (Sachet) (Green Peach Aphid) Mixed Population Test compounds were applied by pipette into 24 well plates and mixed with Sucrose solution. The plates were closed with a stretched Parafilm. A plastic stencil with 24 holes is placed onto the plate and infested pea seedlings were placed directly on the Parafilm. The infested plate is closed with a gel blotting paper and another plastic stencil and then turned upside down. 5 days after infestation the samples were checked on mortality. Application rate: 12.5 ppm.

Diabrotica balteata = test: Diabrotica balteata, L2 larvae on treated artificial diet; details: 120 h, 200 ppm (concentration in well 18 ppm), 5 days incubation
Experimental: (§1) Diabrotica balteata (Corn Root Worm): A 24-well microtiter plate (MTP) with artificial diet was treated with test solutions at an application rate of 200 ppm (concentration in well 18 ppm) by pipetting. After drying, the MTPs were infested with L2 larvae (6-10 per well). After an incubation period of 5 days, samples were checked for larval mortality and growth regulation.

Heliothis virescens = test: Heliothis virescens, eggs on treated artificial diet; details: 96 h, 200 ppm (concentration in well 18 ppm), 4 days incubation
Experimental: Heliothis virescens (Tobacco Budworm): Eggs (0-24 h old) were placed in 24-well microtiter plate on artificial diet and treated with test solutions at an application rate of 200 ppm (concentration in well 18 ppm) by pipetting. After an incubation period of 4 days, samples were checked for egg mortality, larval mortality, and growth regulation.

Spodoptera littoralis [1] = test: Spodoptera littoralis (systemic), salad grown on treated agar, eggs; details: 120 h, application rate 12.5 ppm, checked 5 days after infestation (mortality, repellent effect, feeding behavior, growth regulation)
Source text: Spodoptera littoralis (Systemic) (Egyptian Cotton Leaf Worm) Test compounds were applied by pipette into 24 well plates and mixed with agar. Salad seeds were placed on the agar and the multi well plate is closed by another plate which contains also agar. After 7 days the roots have absorbed the compound and the salad has grown into the lid plate. The salad leafs were now cut off into the lid plate. Spodoptera eggs were pipette through a plastic stencil on a humid gel blotting paper and the plate closed with it. The samples are checked for mortality, repellent effect, feeding behavior, and growth regulation 5 days after infestation. Application rate: 12.5 ppm

Spodoptera littoralis [2] = test: Spodoptera littoralis, sprayed cotton leaf discs, L1 larvae; details: foliar, 72 h, cotton leaf discs sprayed at 200 ppm, 3 days after treatment
Source text: Spodoptera littoralis (Egyptian Cotton Leafworm): Cotton leaf discs were placed on agar in a 24-well microtiter plate and sprayed with test solutions at an application rate of 200 ppm. After drying, the leaf discs were infested with 5 L1 larvae. The samples were checked for mortality, feeding behavior, and growth regulation 3 days after treatment (DAT).

Tetranychus urticae = test: Tetranychus urticae, sprayed bean leaf discs; details: foliar, 192 h, bean leaf discs sprayed at 200 ppm, mixed ages, checked 8 days later
Source text: Tetranychus urticae (Two-Spotted Spider Mite): Bean leaf discs on agar in 24-well microtiter plates were sprayed with test solutions at an application rate of 200 ppm. After drying, the leaf discs are infested with mite populations of mixed ages. 8 days later, discs are checked for egg mortality, larval mortality, and adult mortality.

Plutella xylostella = test: Plutella xylostella, L2 larvae on treated artificial diet; details: 144 h, 200 ppm (concentration in well 18 ppm), 6 days incubation
Experimental: as §1, with “Plutella xylostella (Diamond Back Moth):” for “Diabrotica balteata (Corn Root Worm): A”, “(7-12” for “(6-10”, “6” for “5”

Cc1cc(C2=COC(c3cc(Cl)cc(Cl)c3)(C(F)(F)F)C2)ccc1C(=O)NC1CS(=O)(=O)C1 (stereo not drawn) [Compound D24, 4-[5-(3,5-Dichloro-phenyl)-5-trifluoromethyl-4,5-dihydro-furan-3-yl]-N-(1,1-dioxo-1lambda*6*-thietan-3-yl)-2-methyl-benzamide]
≥ 80%: pest or weed control at 200 ppm (Thrips tabaci) | pest or weed control at 12.5 ppm (Myzus persicae) | pest or weed control at 200 ppm (Diabrotica balteata) | pest or weed control at 200 ppm (Heliothis virescens) | pest or weed control at 12.5 ppm (Spodoptera littoralis [1]) | pest or weed control at 200 ppm (Spodoptera littoralis [2]) | pest or weed control at 200 ppm (Tetranychus urticae) | pest or weed control at 200 ppm (Plutella xylostella)

Cc1cc(C2=COC(c3cc(Cl)cc(Cl)c3)(C(F)(F)F)C2)ccc1C(=O)NCC1CCCO1 (stereo not drawn) [Compound D8]
≥ 80%: pest or weed control at 200 ppm (Thrips tabaci) | pest or weed control at 12.5 ppm (Myzus persicae) | pest or weed control at 200 ppm (Diabrotica balteata) | pest or weed control at 200 ppm (Heliothis virescens) | pest or weed control at 12.5 ppm (Spodoptera littoralis [1]) | pest or weed control at 200 ppm (Spodoptera littoralis [2]) | pest or weed control at 200 ppm (Tetranychus urticae) | pest or weed control at 200 ppm (Plutella xylostella)

Cc1cc(C2=COC(c3cc(Cl)cc(Cl)c3)(C(F)(F)F)C2)ccc1C(=O)NC1C[S+]([O-])C1 (stereo not drawn) [Compound D20]
≥ 80%: pest or weed control at 200 ppm (Thrips tabaci) | pest or weed control at 12.5 ppm (Myzus persicae) | pest or weed control at 200 ppm (Diabrotica balteata) | pest or weed control at 200 ppm (Heliothis virescens) | pest or weed control at 12.5 ppm (Spodoptera littoralis [1]) | pest or weed control at 200 ppm (Spodoptera littoralis [2]) | pest or weed control at 200 ppm (Tetranychus urticae) | pest or weed control at 200 ppm (Plutella xylostella)
